Laboratory results: ChEMBL document CHEMBL1137346, “Carbonic anhydrase inhibitors: clash with Ala65 as a means for designing inhibitors with low affinity for the ubiquitous isozyme II, exemplified by the crystal structure of the topiramate sulfamide analogue” (J Med Chem, 2006)

Experiments:
[1] = target: Carbonic anhydrase 14 (Homo sapiens, UniProt Q9ULX7)
[2] = target: Carbonic anhydrase 7 (Homo sapiens, UniProt P43166)
[3] = target: Carbonic anhydrase 4 (Homo sapiens, UniProt P22748)
[4] = target: Carbonic anhydrase 5A, mitochondrial (Homo sapiens, UniProt P35218)
Sequence of Carbonic anhydrase 5A, mitochondrial (P35218 whole entry): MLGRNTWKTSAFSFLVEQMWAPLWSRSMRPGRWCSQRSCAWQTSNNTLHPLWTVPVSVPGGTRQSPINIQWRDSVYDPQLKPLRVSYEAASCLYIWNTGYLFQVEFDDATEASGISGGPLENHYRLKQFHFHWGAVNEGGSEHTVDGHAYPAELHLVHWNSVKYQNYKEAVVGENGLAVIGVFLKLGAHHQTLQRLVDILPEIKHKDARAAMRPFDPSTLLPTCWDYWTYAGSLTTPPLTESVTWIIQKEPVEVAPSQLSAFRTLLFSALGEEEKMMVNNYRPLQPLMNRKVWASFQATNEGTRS

[5] = target: Carbonic anhydrase 5B, mitochondrial (Homo sapiens, UniProt Q9Y2D0)
Sequence of Carbonic anhydrase 5B, mitochondrial (Q9Y2D0 whole entry): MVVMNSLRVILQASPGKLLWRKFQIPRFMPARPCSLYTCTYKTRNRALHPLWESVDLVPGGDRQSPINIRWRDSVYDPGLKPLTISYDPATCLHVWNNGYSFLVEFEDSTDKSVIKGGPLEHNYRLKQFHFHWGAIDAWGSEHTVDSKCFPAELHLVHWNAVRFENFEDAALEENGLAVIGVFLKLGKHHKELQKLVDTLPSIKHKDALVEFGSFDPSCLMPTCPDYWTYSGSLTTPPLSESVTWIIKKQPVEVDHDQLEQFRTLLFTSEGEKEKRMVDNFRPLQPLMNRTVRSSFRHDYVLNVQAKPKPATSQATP

[6] = target: Carbonic anhydrase 13 (Mus musculus, UniProt Q9D6N1)
Sequence of Carbonic anhydrase 13 (Q9D6N1 whole entry): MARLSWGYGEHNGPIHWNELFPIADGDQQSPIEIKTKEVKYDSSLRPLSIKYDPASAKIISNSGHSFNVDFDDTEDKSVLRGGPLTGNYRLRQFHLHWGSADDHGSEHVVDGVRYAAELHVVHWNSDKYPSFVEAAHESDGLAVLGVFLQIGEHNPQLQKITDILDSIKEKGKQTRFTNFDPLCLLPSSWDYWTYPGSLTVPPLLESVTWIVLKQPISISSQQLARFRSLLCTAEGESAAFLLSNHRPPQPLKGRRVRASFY

Sequence of Carbonic anhydrase 7 (P43166 whole entry): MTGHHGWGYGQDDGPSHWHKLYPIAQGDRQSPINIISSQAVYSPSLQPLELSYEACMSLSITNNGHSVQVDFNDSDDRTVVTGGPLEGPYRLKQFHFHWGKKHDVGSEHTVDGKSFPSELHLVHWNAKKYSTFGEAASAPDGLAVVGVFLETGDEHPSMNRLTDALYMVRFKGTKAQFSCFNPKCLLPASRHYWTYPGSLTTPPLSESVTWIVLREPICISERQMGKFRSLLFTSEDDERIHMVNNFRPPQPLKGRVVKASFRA
Sequence of Carbonic anhydrase 14 (Q9ULX7 whole entry): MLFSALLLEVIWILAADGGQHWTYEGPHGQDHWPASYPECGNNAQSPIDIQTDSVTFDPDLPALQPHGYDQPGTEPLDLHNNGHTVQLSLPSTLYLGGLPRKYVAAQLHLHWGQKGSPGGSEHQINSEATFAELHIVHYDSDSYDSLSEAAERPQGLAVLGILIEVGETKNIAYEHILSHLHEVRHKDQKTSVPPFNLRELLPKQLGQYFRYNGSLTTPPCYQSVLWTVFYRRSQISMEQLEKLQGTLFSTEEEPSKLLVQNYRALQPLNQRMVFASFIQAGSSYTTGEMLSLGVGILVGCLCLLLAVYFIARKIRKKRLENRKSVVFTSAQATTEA
Sequence of Carbonic anhydrase 4 (P22748 whole entry): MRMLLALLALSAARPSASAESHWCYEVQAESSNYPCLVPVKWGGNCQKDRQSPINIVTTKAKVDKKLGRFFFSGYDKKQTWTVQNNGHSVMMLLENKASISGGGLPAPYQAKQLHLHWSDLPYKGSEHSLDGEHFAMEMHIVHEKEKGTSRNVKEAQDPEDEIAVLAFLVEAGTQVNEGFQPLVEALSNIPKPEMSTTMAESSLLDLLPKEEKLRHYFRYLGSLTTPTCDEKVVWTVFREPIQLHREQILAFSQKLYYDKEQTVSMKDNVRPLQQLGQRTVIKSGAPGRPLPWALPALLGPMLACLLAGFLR

Ki [1]: 25 nM
Ki [2]: 35 nM
Ki [3]: 941 nM
Ki [4]: 32 nM
Ki [5]: 21 nM
Ki [6]: 30 nM
SMILES: CC1(C)O[C@@H]2[C@@H](CO[C@@]3(CNS(N)(=O)=O)OC(C)(C)O[C@@H]23)O1
